In US20130040882A1, “USE OF FIBROBLAST GROWTH FACTOR FRAGMENTS” (NOVARTIS AG, priority 2003, published 2013):
Entries after “also recorded” stand apart in the source; their conditions may differ.

Key:
uterine gene expression = test: Gene expression profiling (HGU133A) in the uterus of ovariectomized monkeys treated with estradiol, tamoxifen or raloxifene; assay type: in vivo, cynomolgus monkeys (Macaca fascicularis)
[1] = test system: luteinising hormone and follicle-stimulating hormone genes in the pituitary gland; test: Gene expression (HGU133A) in the pituitary gland of ovariectomized monkeys treated with estradiol, tamoxifen or raloxifene; assay type: in vivo, cynomolgus monkeys (Macaca fascicularis); conditions: OVX monkeys
Experimental: Female sexually mature cynomolgus monkeys (Macaca fascicularis obtained from R. C. Hartelust B V, Tilburg, the Netherlands) approximately 48 months old were subjected to surgery (ovarectomy [OVX] or sham) 10 weeks prior to treatment and were treated for parasitic arthropods and helminthes, subjected to a tuberculin testing, and acclimated to the treatment facility for at least 14 days before beginning treatment.
Surgical Procedures. The ovariectomized cynomolgus monkey (Macaca fascicularis), which has been validated as a useful model predictive of outcomes in human clinical trials of estrogen and SERMs (Cline J M et al., Toxicol Pathol. 29:84-90 (2001)), was used as a model of estrogen deficiency. Animals were ovariectomized approximately 10 weeks before the first day of treatment. The ovaries were removed following anesthesia with a combined intramuscular injection of xylazine (Rompun®: 0.4 mL/animal, Bayer Pharma Division Sante Animale, Puteaux, France) and ketamine hydrochloride (Imalgéne®: 0.6 mL/kg, Mérial, Lyon, France). Sham-operated animals were subjected to the same surgical procedure, except for the removal of ovaries.
Ovariectomized and sham-operated animals were divided into groups of 4 and treated as outlined below.
Gene expression was determined in the pituitary and uterus at the end of drug therapy. Tissues to be analyzed (pituitary glands and uterus) were excised, snap frozen in liquid nitrogen, and stored at −80° C. until RNA extraction was performed.
Total RNA was obtained by acid guanidinium isothiocyanate-phenol-chloroform extraction (Trizol; Invitrogen Life Technologies, San Diego, Calif., USA) and purified on an affinity resin column (RNeasy; Qiagen, Hilden, Germany) according to manufacturer instructions. […] Lockhart D J, Dong H, Byrne M C, et al. Nat. Biotechnol. 1996; 14:1675-1680.
Previous studies have proven the validity of cross-species DNA chip analysis (Hacia J G et al. Nat Genet. 18:155-158 (1998)), therefore, the human gene expression probe arrays HGU133A (Affymetrix, Santa Clara, Calif., USA) containing 22,283 probe sets interrogating primarily annotated human genes were used. One GeneChip was used per tissue, per animal. The resulting image files (.dat files) were processed using the Microarray Analysis Suite 5 (MAS5) software (Affymetrix, Inc.). Tab-delimited files were obtained containing data regarding signal intensity (Signal) and categorical expression level measurement (Absolute Call).

[2] = test system: gene expression in organs; test: Blind monkey trial of three peptides: gene expression profiling of organs on Affymetrix U95 chips; assay type: in vivo, cynomolgus monkeys; conditions: 100 μg/animal/day sc, two weeks
[3] = compared with untreated OVX controls

O=C(c1ccc(OCCN2CCCCC2)cc1)c1c(-c2ccc(O)cc2)sc2cc(O)ccc12 [Ralolxifene]
Fold change relative to SHAM control: Cadherin 11, type 2, OB-cadherin (osteoblast) (uterine gene expression; uterus, OVX monkeys): 0.8 fold | Fold change relative to SHAM control: Calcium channel, voltage-dependent, beta 2 subunit (uterine gene expression; uterus, OVX monkeys): 1.5 fold | Fold change relative to SHAM control: Catenin (cadherin-associated protein), alpha-like 1 (uterine gene expression; uterus, OVX monkeys): 1.5 fold | Fold change relative to SHAM control: Dishevelled associated activator of morphogenesis 1 (uterine gene expression; uterus, OVX monkeys): 0.6 fold | Fold change relative to SHAM control: Four and a half LIM domains 2 (uterine gene expression; uterus, OVX monkeys): 0.6 fold | Fold change relative to SHAM control: Integrin, beta 5 (uterine gene expression; uterus, OVX monkeys): 0.9 fold | Fold change relative to SHAM control: LDL receptor adaptor protein (uterine gene expression; uterus, OVX monkeys): 1.4 fold | Fold change relative to SHAM control: LIM and senescent cell antigen-like domains 1 (uterine gene expression; uterus, OVX monkeys): 0.8 fold | Fold change relative to SHAM control: Mitogen-activated protein kinase kinase kinase kinase 4 (uterine gene expression; uterus, OVX monkeys): 1.2 fold | Fold change relative to SHAM control: Phosphatase and tensin homolog (mutated in multiple advanced cancers 1) (uterine gene expression; uterus, OVX monkeys): 0.7 fold | Fold change relative to SHAM control: Phospholipid transfer protein (uterine gene expression; uterus, OVX monkeys): 0.7 fold | Fold change relative to SHAM control: Progesterone receptor (uterine gene expression; uterus, OVX monkeys): 0.6 fold | Fold change relative to SHAM control: Protein tyrosine kinase 9 (uterine gene expression; uterus, OVX monkeys): 0.8 fold | Fold change relative to SHAM control: Secreted frizzled-related protein 1 (uterine gene expression; uterus, OVX monkeys): 0.8 fold | Fold change relative to SHAM control: Secreted frizzled-related protein 4 (uterine gene expression; uterus, OVX monkeys): 0.4 fold | Fold change relative to SHAM control: Wingless-type MMTV integration site family, member 2B (uterine gene expression; uterus, OVX monkeys): 0.8 fold | Fold change relative to SHAM control: Wingless-type MMTV integration site family, member 16 (uterine gene expression; uterus, OVX monkeys): 0.8 fold | Fold change relative to SHAM control: Insulin receptor (uterine gene expression; uterus, OVX monkeys, Table 46): 1.4 fold

C[C@]12CC[C@@H]3c4ccc(O)cc4CC[C@H]3[C@@H]1CC[C@@H]2O [estradiol]
Decrease of FSH transcripts in the pituitary gland [1]: 73.4 fold | Decrease of LH transcripts in the pituitary gland [1]: 16.4 fold | Uterine expression increase: transport genes (uterine gene expression): 2-7 fold | Uterine expression downregulation: thioredoxin interacting protein (uterine gene expression; compared with OVX control): 3 fold | Uterine expression increase: Collagen type 1 alpha 2 (uterine gene expression; compared with OVX controls): 13.2 fold | Uterine expression increase: cell cycle proteins (CDC28 protein kinase regulatory subunit 2) (uterine gene expression; compared with OVX controls): up to 4 fold | Uterine expression increase: collagen type 1 alpha1 (uterine gene expression; compared with OVX controls): 6.6 fold | Uterine expression increase: collagen type III alpha 1 (uterine gene expression; compared with OVX controls): 6.8 fold | Uterine expression increase: collagen type IV alpha 1 (uterine gene expression; compared with OVX controls): 4.3 fold | Uterine expression increase: cysteine-rich angiogenic inducer 61 (uterine gene expression; compared with OVX controls): 3.5 fold | Uterine expression increase: insulin-like GF binding protein 2 (36 kDa) (uterine gene expression; compared with OVX controls): 7.1 fold | Uterine expression increase: insulin-like growth factor binding protein 5 (uterine gene expression; compared with OVX controls): 5.2 fold | Uterine expression increase: latent transforming growth factor beta binding protein 1 (uterine gene expression; compared with OVX controls): 3.6 fold | Uterine expression increase: Dishevelled associated activator of morphogenesis 1 (uterine gene expression; [3]): 3.1 fold | Uterine expression increase: integrin (beta 5) (uterine gene expression; [3]): 1.7 fold | Uterine expression increase: progesterone receptor (uterine gene expression; [3]): 9.8 fold | Uterine expression increase: secreted frizzled-related protein 1 (uterine gene expression; [3]): 7.1 fold | Uterine expression increase: secreted frizzled-related protein 4 (uterine gene expression; [3]): 4.2 fold | Uterine expression increase: wingless-type MMTV integration site (family, member 2B; wnt2B) (uterine gene expression; [3]): 2.6 fold

Peptide 3: leukemia inhibitory factor
Conclusions of the in vivo Profiling by the Data Mining Team: Function/Pathway [2]: Ca^++ bone metabolism; also recorded: Inflammation; also recorded: Immunosuppression; also recorded: Vascular differentiation | Findings by the Data Mining Team: Skeletal muscle (gene with direction) [2]: JunB and haptoglobin and phospholipase A2 typeIIA+
